From patent US12077503B2, “Substituted cyclic amides and their use as herbicides” (FMC CORPORATION, priority 2015, dated 2024)

Legend:
Assay type in all cases: in vivo
[1] = system: redroot pigweed (Amaranthus retroflexus); assay: Test G Post-Emergence Protocol; settings: Amaranthus retroflexus, post-emergence, 312 h
Procedure, shortened: (§1)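 Post-emergence herbicidal damage, scored visually 0–100 at 13 days. Application at 15.625, 62.5 or 250 g/ha onto 8-day-old plants grown under glasshouse control.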

[2] = system: corn (Zea mays); assay: Test G Post-Emergence Protocol; settings: Zea mays, post-emergence, 312 h
Procedure, shortened: as §1

[3] = system: velvetleaf (Abutilon theophrasti); assay: Test G Post-Emergence Protocol; settings: Abutilon theophrasti, post-emergence, 312 h
Procedure, shortened: as §1

[4] = system: giant foxtail (Setaria faberi); assay: Test G Post-Emergence Protocol; settings: Setaria faberi, post-emergence, 312 h
Procedure, shortened: as §1

[5] = system: ivy-leaved morning glory (Ipomoea hederacea); assay: Test G Post-Emergence Protocol; settings: Ipomoea, post-emergence, 312 h
Procedure, shortened: as §1

[6] = system: barnyardgrass (Echinochloa crus-galli); assay: Test G Post-Emergence Protocol; settings: Echinochloa crus-galli, post-emergence, 312 h
Procedure, shortened: as §1

[7] = system: redroot pigweed (Amaranthus retroflexus); assay: Test G Pre-Emergence Protocol; settings: Amaranthus retroflexus, pre-emergence, 312 h, evaluated after 13 days
Procedure, shortened: (§2)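 Pots of seeds in standard soil were grown for one day in a glasshouse (24/16 °C day/night, 14 h light, 65% humidity), then sprayed with compound in acetone/water 50:50 with 0.5% Tween 20 at 15.625, 62.5 or 250 g/ha. Damage was scored after 13 days on a 0 (none) to 100 (total) scale.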

[8] = system: corn (Zea mays); assay: Test G Pre-Emergence Protocol; settings: Zea mays, pre-emergence, 312 h, evaluated after 13 days
Procedure, shortened: as §2

[9] = system: velvetleaf (Abutilon theophrasti); assay: Test G Pre-Emergence Protocol; settings: Abutilon theophrasti, pre-emergence, 312 h, evaluated after 13 days
Procedure, shortened: as §2

[10] = system: giant foxtail (Setaria faberi); assay: Test G Pre-Emergence Protocol; settings: Setaria faberi, pre-emergence, 312 h, evaluated after 13 days
Procedure, shortened: as §2

[11] = system: ivy-leaved morning glory (Ipomoea hederacea); assay: Test G Pre-Emergence Protocol; settings: Ipomoea, pre-emergence, 312 h, evaluated after 13 days
Procedure, shortened: as §2

[12] = system: barnyardgrass (Echinochloa crus-galli); assay: Test G Pre-Emergence Protocol; settings: Echinochloa crus-galli, pre-emergence, 312 h, evaluated after 13 days
Procedure, shortened: as §2

CSc1nnc(NC(=O)[C@@H]2C(=O)N(C)C[C@H]2c2ccc(C(F)(F)F)cc2)[nH]1 (racemic) [Compound 1603]
0%: pest or weed control at 15.625 g/ha ([1]; 15.625 g ai/ha, evaluated after 13 days (100=total damage to plant; 0=no damage to plant), read-out: Pigweed, Redroot damage rating) | pest or weed control at 62.5 g/ha ([1]; 62.5 g ai/ha, evaluated after 13 days, read-out: Pigweed, Redroot damage rating (100=total damage to plant; 0=no damage to plant)) | pest or weed control at 250 g/ha ([1]; 250 g ai/ha, evaluated after 13 days, read-out: damage to plant, Pigweed, Redroot (100=total damage to plant; 0=no damage to plant)) | plant injury at 15.625 g/ha ([2]; 15.625 g ai/ha, evaluated after 13 days (100=total damage to plant; 0=no damage to plant), read-out: Corn damage rating) | plant injury at 62.5 g/ha ([2]; 62.5 g ai/ha, evaluated after 13 days, read-out: Corn damage rating (100=total damage to plant; 0=no damage to plant)) | plant injury at 250 g/ha ([2]; 250 g ai/ha, evaluated after 13 days, read-out: damage to plant, Corn (100=total damage to plant; 0=no damage to plant)) | pest or weed control at 15.625 g/ha ([3]; 15.625 g ai/ha, evaluated after 13 days (100=total damage to plant; 0=no damage to plant), read-out: Velvetleaf damage rating) | pest or weed control at 62.5 g/ha ([3]; 62.5 g ai/ha, evaluated after 13 days, read-out: Velvetleaf damage rating (100=total damage to plant; 0=no damage to plant)) | pest or weed control at 250 g/ha ([3]; 250 g ai/ha, evaluated after 13 days, read-out: damage to plant, Velvetleaf (100=total damage to plant; 0=no damage to plant)) | pest or weed control at 15.625 g/ha ([4]; 15.625 g ai/ha, evaluated after 13 days (100=total damage to plant; 0=no damage to plant), read-out: Foxtail, Giant damage rating) | pest or weed control at 62.5 g/ha ([4]; 62.5 g ai/ha, evaluated after 13 days, read-out: Foxtail, Giant damage rating (100=total damage to plant; 0=no damage to plant)) | pest or weed control at 250 g/ha ([4]; 250 g ai/ha, evaluated after 13 days, read-out: damage to plant, Foxtail, Giant (100=total damage to plant; 0=no damage to plant)) | pest or weed control at 15.625 g/ha ([5]; 15.625 g ai/ha, evaluated after 13 days (100=total damage to plant; 0=no damage to plant), read-out: Morningglory, Ivy-leaved damage rating) | pest or weed control at 62.5 g/ha ([5]; 62.5 g ai/ha, evaluated after 13 days, read-out: Morningglory, Ivy-leaved damage rating (100=total damage to plant; 0=no damage to plant)) | pest or weed control at 250 g/ha ([5]; 250 g ai/ha, evaluated after 13 days, read-out: damage to plant, Morningglory, Ivy-leaved (100=total damage to plant; 0=no damage to plant)) | pest or weed control at 15.625 g/ha ([6]; 15.625 g ai/ha, evaluated after 13 days (100=total damage to plant; 0=no damage to plant), read-out: Barnyardgrass damage rating) | pest or weed control at 62.5 g/ha ([6]; 62.5 g ai/ha, evaluated after 13 days, read-out: Barnyardgrass damage rating (100=total damage to plant; 0=no damage to plant)) | pest or weed control at 250 g/ha ([6]; 250 g ai/ha, evaluated after 13 days, read-out: damage to plant, Barnyardgrass (100=total damage to plant; 0=no damage to plant)) | pest or weed control at 15.625 g/ha ([7]; 15.625 g ai/ha, read-out: Pigweed, Redroot damage rating (100=total damage to plant; 0=no damage to plant)) | pest or weed control at 62.5 g/ha ([7]; 62.5 g ai/ha, 100=total damage to plant, 0=no damage to plant, read-out: plant damage rating, Pigweed, Redroot) | pest or weed control at 250 g/ha ([7]; 250 g ai/ha, read-out: Pigweed, Redroot damage rating (100=total damage to plant; 0=no damage to plant)) | plant injury at 15.625 g/ha ([8]; 15.625 g ai/ha, read-out: Corn damage rating (100=total damage to plant; 0=no damage to plant)) | plant injury at 62.5 g/ha ([8]; 62.5 g ai/ha, 100=total damage to plant, 0=no damage to plant, read-out: plant damage rating, Corn) | plant injury at 250 g/ha ([8]; 250 g ai/ha, read-out: Corn damage rating (100=total damage to plant; 0=no damage to plant)) | pest or weed control at 15.625 g/ha ([9]; 15.625 g ai/ha, read-out: Velvetleaf damage rating (100=total damage to plant; 0=no damage to plant)) | pest or weed control at 62.5 g/ha ([9]; 62.5 g ai/ha, 100=total damage to plant, 0=no damage to plant, read-out: plant damage rating, Velvetleaf) | pest or weed control at 250 g/ha ([9]; 250 g ai/ha, read-out: Velvetleaf damage rating (100=total damage to plant; 0=no damage to plant)) | pest or weed control at 15.625 g/ha ([10]; 15.625 g ai/ha, read-out: Foxtail, Giant damage rating (100=total damage to plant; 0=no damage to plant)) | pest or weed control at 62.5 g/ha ([10]; 62.5 g ai/ha, 100=total damage to plant, 0=no damage to plant, read-out: plant damage rating, Foxtail, Giant) | pest or weed control at 250 g/ha ([10]; 250 g ai/ha, read-out: Foxtail, Giant damage rating (100=total damage to plant; 0=no damage to plant)) | pest or weed control at 15.625 g/ha ([11]; 15.625 g ai/ha, read-out: Morning-glory, Ivy-leaved damage rating (100=total damage to plant; 0=no damage to plant)) | pest or weed control at 62.5 g/ha ([11]; 62.5 g ai/ha, 100=total damage to plant, 0=no damage to plant, read-out: plant damage rating, Morningglory, Ivy-leaved) | pest or weed control at 250 g/ha ([11]; 250 g ai/ha, read-out: Morningglory, Ivy-leaved damage rating (100=total damage to plant; 0=no damage to plant)) | pest or weed control at 15.625 g/ha ([12]; 15.625 g ai/ha, read-out: Barnyard grass damage rating (100=total damage to plant; 0=no damage to plant)) | pest or weed control at 62.5 g/ha ([12]; 62.5 g ai/ha, 100=total damage to plant, 0=no damage to plant, read-out: plant damage rating, Barnyardgrass) | pest or weed control at 250 g/ha ([12]; 250 g ai/ha, read-out: Barnyardgrass damage rating (100=total damage to plant; 0=no damage to plant))
